Laboratory results: ChEMBL document CHEMBL3352537 (Bioorg Med Chem Lett, 2014)

What was measured:
[1] = Antioxidant activity assessed as DPPH scavenging activity at 5 to 20 uM after 15 mins by UV-visible spectrophotometry; assay type: physicochemical
[2] = target: Prostaglandin G/H synthase 1 (Homo sapiens) (UniProt P23219); experiment: Inhibition of COX1 (unknown origin) using arachidonic acid as substrate at […] after 10 mins by luminometry
[3] = target: Transcription factor p65 (Homo sapiens) (UniProt Q04206); experiment: Inhibition of LPS-induced NF-kappaB p65 activation in human THP1 cells preincubated at 10 uM for 15 mins before LPS treatment measured after 16 hrs; assay type: cell-based; conditions: THP-1
[4] = Antioxidant activity assessed as superoxide anion radical scavenging activity at 5 to 20 uM by xanthine/xanthine oxidase assay; assay type: physicochemical

Chain of Prostaglandin G/H synthase 1 (Homo sapiens) (P23219 whole entry): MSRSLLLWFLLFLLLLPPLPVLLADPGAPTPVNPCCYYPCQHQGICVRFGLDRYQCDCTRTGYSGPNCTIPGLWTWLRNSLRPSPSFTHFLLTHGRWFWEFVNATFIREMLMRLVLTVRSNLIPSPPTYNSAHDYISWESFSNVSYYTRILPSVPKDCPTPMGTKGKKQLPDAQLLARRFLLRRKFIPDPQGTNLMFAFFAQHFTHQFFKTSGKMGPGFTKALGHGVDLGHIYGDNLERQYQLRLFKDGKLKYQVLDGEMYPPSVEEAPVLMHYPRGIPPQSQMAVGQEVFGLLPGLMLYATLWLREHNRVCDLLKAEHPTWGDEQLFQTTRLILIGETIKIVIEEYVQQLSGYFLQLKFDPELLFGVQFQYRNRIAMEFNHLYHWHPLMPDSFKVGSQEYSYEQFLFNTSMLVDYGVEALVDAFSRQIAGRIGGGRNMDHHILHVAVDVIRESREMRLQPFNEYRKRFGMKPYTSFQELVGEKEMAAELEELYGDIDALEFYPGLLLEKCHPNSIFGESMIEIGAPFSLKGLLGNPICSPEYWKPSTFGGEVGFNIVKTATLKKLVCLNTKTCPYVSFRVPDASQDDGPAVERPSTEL
Chain of Transcription factor p65 (Homo sapiens) (Q04206 whole entry): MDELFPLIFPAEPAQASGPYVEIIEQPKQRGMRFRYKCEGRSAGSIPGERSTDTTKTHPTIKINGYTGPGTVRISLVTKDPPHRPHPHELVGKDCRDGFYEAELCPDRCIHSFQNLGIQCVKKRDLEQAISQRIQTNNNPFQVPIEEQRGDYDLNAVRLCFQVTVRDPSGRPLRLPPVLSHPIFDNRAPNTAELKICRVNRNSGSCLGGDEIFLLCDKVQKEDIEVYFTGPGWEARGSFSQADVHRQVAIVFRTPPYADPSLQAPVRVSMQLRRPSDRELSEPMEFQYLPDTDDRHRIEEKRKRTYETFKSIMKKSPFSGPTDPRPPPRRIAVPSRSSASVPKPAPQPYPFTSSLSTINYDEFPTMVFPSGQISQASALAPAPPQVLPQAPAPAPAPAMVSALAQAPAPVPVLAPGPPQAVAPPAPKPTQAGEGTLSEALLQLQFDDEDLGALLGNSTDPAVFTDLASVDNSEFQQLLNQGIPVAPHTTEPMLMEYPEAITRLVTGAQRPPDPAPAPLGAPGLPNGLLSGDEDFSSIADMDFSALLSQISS

| SMILES | Activity [1] | inhibition [2] [%] | inhibition [3] [%] | Activity [4] [%] |
| --- | --- | --- | --- | --- |
| O=C(O)c1ccc(O)cc1 [PARABEN] | Active |  |  |  |
| Oc1ccc(CCNCc2ccc(O)c(O)c2)cc1 | Active | 51 | 23 | 33 |
| COc1cc(C(=O)O)ccc1O [VANILLIC ACID] | Active |  |  |  |
